Experimental data taken from patent US20080004290A1, “Anti-Cancer Agents” (THE UNIVERSITY OF QUEENSLAND, priority 2003, published 2008).
Read-outs that look alike come from different tables or passages of the source.

Legend:
[1] = tested on: NFF, neonatal foreskin fibroblasts; assay: Cell survival assay (clonogenic survival, SRB), normal cells; format: cell-based, human; conditions: SRB
Experimental: (§1) The cytotoxicities of the compounds of the invention were determined by clonogenic survival of human cancer cells (MM96L, melanoma) and human normal cells (NFF, neonatal foreskin fibroblasts). Cells were incubated with the compounds at various concentrations of compound (0.01-10 μg/mL) for 24 hours, washed, and then grown for a further four days in the absence of hydroxamic acid before determining cell survival by cell count. The final readout involved staining with sulforhodamine B (SRB), a cost-effective method amenable to automation and high throughput analysis. At the technical level, “cell sensitivity” is often inferred from short term (1-2 day) observations such as apoptosis, which may not be a satisfactory model of clonogenic survival.
(§2) Cell Lines and Culture Medium. All cell lines used in this study have been described previously (Parsons et al., 1986; Todaro et al., 1980; Glenn et al., 2004). All cell lines were cultured in 10% heat-inactivated foetal calf serum (CSL, Australia) in RPMI 1640 medium supplemented with 100 U/mL penicillin, 100 μg/mL streptomycin, and 3 mM HEPES at 5% CO2, 99% humidity at 37° C. Primary human fibroblasts were obtained from neonatal foreskins and cultured in the above medium. Routine mycoplasma tests were performed using Hoechst stain^i and were always negative.
(§3) Cell Survival Assay. Cells were plated into 96-well microtitre plates at 5×10^3 cells/well, and allowed to adhere overnight. Test compounds were added to culture medium at the indicated concentrations, and plates incubated in the above conditions for 24 hours. Following this incubation period, compounds and media were removed, and replaced with fresh culture medium. Cells were then grown for a further 72 hours before assay using sulforhodamine B (SRB; Sigma, St. Louis, Mo.) as previously described. Briefly, the culture medium was removed from the 96-well microtitre plates and the plates washed twice with phosphate buffered saline (PBS), before the cells were fixed with methylated spirits for 15 minutes. The plates were then rinsed with tap water and the fixed cells stained with 50 μL/well of SRB solution (0.4% sulforhodamine B (w/v) in 1% (v/v) acetic acid) over a period of 1 hour. The SRB solution was then removed from the wells and the plates rapidly washed two times with 1% (v/v) acetic acid. Protein bound dye was then solubilised with the addition of 100 μL of 10 mM unbuffered Tris, and incubated for 15 min at 25° C. Plates were then read at 564 nm on a VERSA max tunable microplate reader (Molecular Devices, Sunnyvale, Calif.).

MM96L melanoma cells = assay: Cell survival assay (clonogenic survival, SRB); format: cell-based, human; conditions: for SI (Selectivity Index = IC50 (NFF)/IC50 (MM96L)): NFF vs MM96L
Experimental: as §1, §2, §3

[2] = Table 5, 24 hours with compound, further growth, read-out: IC50 NFF
[3] = Table 5, 24 hours with compound, further growth, SRB, read-out: IC50 MM96L
[4] = Table 5, Selectivity Index = IC50 (NFF)/IC50 (MM96L)
[5] = Table 8, 24 hours with compound, further growth, read-out: IC50 (μM) NFF
[6] = Table 8, 24 hours with compound, further growth, SRB, read-out: IC50 (μM) MM96
[7] = Table 8, IC50 (NFF)/IC50 (MM96L)
[8] = Homo sapiens, Fibroblast, 24 h, Table 7, 24 hours with compound, further growth, read-out: IC50 (μM) NFF
[9] = Homo sapiens, MM96L, 24 h, Table 7, 24 hours with compound, further growth, SRB, read-out: IC50 (μM) MM96L
[10] = Table 7, IC50 (NFF)/IC50 (MM96L)
[11] = Homo sapiens, Fibroblast, 24 h, Table 6, 24 hours with compound, further growth, read-out: IC50 (μM) NFF
[12] = Homo sapiens, MM96L, 24 h, Table 6, 24 hours with compound, further growth, SRB, read-out: IC50 (μM) MM96L
[13] = Table 6, IC50 (NFF)/IC50 (MM96L)
[14] = Homo sapiens, Fibroblast, NFF normal fibroblasts, 24 h with compound, further 72 h growth, read-out: IC50 (uM) NFF
[15] = Homo sapiens, MM96L, MM96L melanoma, 24 h with compound, further 72 h growth, SRB, read-out: IC50 (uM) MM96L
[16] = Homo sapiens, MM96L, most preferred compounds, exemplary examples, read-out: potency of IC50 against the MM96 melanoma cells
[17] = NFF normal fibroblasts, 24 h with compound, further 72 h growth, read-out: IC50 (uM) NFF

O=C(CCCSC[C@H](NC(=O)c1cccc2ccccc12)C(=O)NCc1ccccc1)NO [Example 37]
IC50 [1, 2]: 5.3 ± 0.6 µM | IC50 (MM96L melanoma cells; [3]): 6.3 ± 0.6 µM | Selectivity (MM96L melanoma cells; [4]): 0.8

CN(C)c1ccc(C(=O)N[C@@H](CSCCCC(=O)NO)C(=O)NCc2ccc(C(=O)Nc3ccc4cn[nH]c4c3)cc2)cc1 [Example 114]
IC50 [1, 5]: 12.2 µM | IC50 (MM96L melanoma cells; [6]): 1.5 µM | Selectivity (MM96L melanoma cells; [7]): 8.1

O=C(/C=C/c1ccccc1)N[C@@H](CSCCCC(=O)NO)C(=O)Nc1ccncc1 [Example 97]
IC50 [1, 8]: 1.6 ± 0.3 µM | IC50 (MM96L melanoma cells; [9]): 0.5 ± 0.2 µM | Selectivity (MM96L melanoma cells; [10]): 3.3

CN(C)c1ccc(C(=O)N[C@@H](CSCCCC(=O)NO)C(=O)NC23CC4CC(CC(C4)C2)C3)cc1 [Example 92]
IC50 [1, 11]: 7.1 ± 0.5 µM | IC50 (MM96L melanoma cells; [12]): 1.48 ± 0.08 µM | Selectivity (MM96L melanoma cells; [13]): 4.8

C/C=C/C(=O)N[C@@H](CSCCCC(=O)NO)C(=O)NCc1ccccc1 [Example 52]
IC50 [1, 2]: > 100 µM | IC50 (MM96L melanoma cells; [3]): 11 ± 0.7 µM | Selectivity (MM96L melanoma cells; [4]): >9

O=C(CCCSC[C@H](NC(=O)c1ccco1)C(=O)NCc1ccccc1)NO [Example 34]
IC50 [1, 2]: 22 ± 1 µM | IC50 (MM96L melanoma cells; [3]): 7.2 ± 0.2 µM | Selectivity (MM96L melanoma cells; [4]): 3.1

CN(C)c1ccc(C(=O)N[C@@H](CSCCCC(=O)NO)C(=O)NC2CCCC2)cc1 [Example 89]
IC50 [1, 11]: 2.6 ± 0.3 µM | IC50 (MM96L melanoma cells; [12]): 1.5 ± 0.1 µM | Selectivity (MM96L melanoma cells; [13]): 1.7

CN(C)c1ccc(C(=O)N[C@@H](CSCCCC(=O)NO)C(=O)Nc2ccncc2)cc1 [Example 77]
IC50 [1, 11]: 7.2 ± 0.8 µM | IC50 (MM96L melanoma cells; [12]): 1.8 ± 0.2 µM | Selectivity (MM96L melanoma cells; [13]): 4.1

O=C(CCCCC[C@H](NC(=O)OCc1ccccc1)C(=O)Nc1ccc(-c2ccccc2)cc1)NO [Example 160]
IC50 [1, 14]: 2.21 µM | IC50 (MM96L melanoma cells; [15]): 0.331 µM | IC50 (MM96L melanoma cells; [16]): ≤ 0.5 µM | SI (Selectivity Index = IC50 (NFF)/IC50 (MM96L)) (MM96L melanoma cells): 6.7

O=C(CCCSC[C@H](NC(=O)c1ccc(-c2ccccc2)cc1)C(=O)NCc1ccccc1)NO [Example 25]
IC50 [1, 2]: 2.8 ± 0.2 µM | IC50 (MM96L melanoma cells; [3]): 0.9 ± 0.1 µM | Selectivity (MM96L melanoma cells; [4]): 3.1

COc1ccc(CCC(=O)N[C@@H](CSCCCC(=O)NO)C(=O)NCc2ccccc2)cc1 [Example 47]
IC50 [1, 2]: 16 ± 1 µM | IC50 (MM96L melanoma cells; [3]): 8 ± 1 µM | Selectivity (MM96L melanoma cells; [4]): 2.0

O=C(CCCCC[C@H](NC(=O)c1ccc(Br)cc1)C(=O)NCc1ccccc1)NO [Example 136]
IC50 [1, 14]: 5.86 µM | IC50 (MM96L melanoma cells; [15]): 1.99 µM | SI (Selectivity Index = IC50 (NFF)/IC50 (MM96L)) (MM96L melanoma cells): 4.2

COC(=O)c1ccc(NC(=O)[C@H](CSCCCC(=O)NO)NC(=O)c2ccc(N(C)C)cc2)cc1 [Example 63]
IC50 [1, 11]: 2.8 ± 0.1 µM | IC50 (MM96L melanoma cells; [12]): 0.96 ± 0.07 µM

CN(C)c1ccc(C(=O)N[C@@H](CSCCCC(=O)NO)C(=O)Nc2cccc3scnc23)cc1 [Example 69]
IC50 [1, 11]: 3.3 ± 0.3 µM | IC50 (MM96L melanoma cells; [12]): 1.3 ± 0.1 µM | Selectivity (MM96L melanoma cells; [13]): 2.5

O=C(/C=C/c1ccccc1)N[C@@H](CSCCCC(=O)NO)C(=O)Nc1cccnc1 [Example 98]
IC50 [1, 8]: 6.4 ± 0.8 µM | IC50 (MM96L melanoma cells; [9]): 1.2 ± 0.3 µM | Selectivity (MM96L melanoma cells; [10]): 5.2

CN(C)c1ccc(C(=O)N[C@@H](CSCCCC(=O)NO)C(=O)NC2CCN(Cc3ccccc3)CC2)cc1 [Example 90]
IC50 [1, 11]: 1.28 ± 0.08 µM | IC50 (MM96L melanoma cells; [12]): 1.5 ± 0.2 µM | Selectivity (MM96L melanoma cells; [13]): 0.9

CN(C)c1ccc(C(=O)N[C@@H](CSCCCC(=O)NO)C(=O)NCc2ccc(C(=O)Nc3ccccc3Cc3ccccc3)cc2)cc1 [Example 120]
IC50 [1, 5]: 2.32 µM | IC50 (MM96L melanoma cells; [6]): 1.02 µM | Selectivity (MM96L melanoma cells; [7]): 2.4

COc1cc(OC)cc(C(=O)N[C@@H](CSCCCC(=O)NO)C(=O)NCc2ccccc2)c1 [Example 30]
IC50 [1, 2]: 4.5 ± 0.6 µM | IC50 (MM96L melanoma cells; [3]): 1.7 ± 0.3 µM | Selectivity (MM96L melanoma cells; [4]): 2.6

O=C(CCCCC[C@H](NC(=O)Cc1ccc(-c2ccccc2)cc1)C(=O)NCc1ccccc1)NO [Example 140]
IC50 [1, 14]: 5.13 µM | IC50 (MM96L melanoma cells; [15]): 2.36 µM | SI (Selectivity Index = IC50 (NFF)/IC50 (MM96L)) (MM96L melanoma cells): 2.2

O=C(CCCSC[C@H](NC(=O)c1cccc(O)c1O)C(=O)NCc1ccccc1)NO [Example 31]
IC50 [1, 2]: 4.5 ± 0.6 µM | IC50 (MM96L melanoma cells; [3]): 32 ± 3 µM | Selectivity (MM96L melanoma cells; [4]): 0.14

CN(C)c1ccc(C(=O)N[C@@H](CSCCCC(=O)NO)C(=O)NCc2ccc(C(=O)Nc3ccncc3)cc2)cc1 [Example 107]
IC50 [1, 5]: 16.9 µM | IC50 (MM96L melanoma cells; [6]): 2.96 µM | Selectivity (MM96L melanoma cells; [7]): 5.7

CN(C)c1ccc(C(=O)N[C@@H](CSCCCC(=O)NO)C(=O)Nc2ccccc2Cc2ccccc2)cc1 [Example 64]
IC50 [1, 11]: 6.8 ± 0.4 µM | IC50 (MM96L melanoma cells; [12]): 3.5 ± 0.2 µM | Selectivity (MM96L melanoma cells; [13]): 1.9

O=C(CCCCC[C@H](NC(=O)c1cc2c(Br)cccc2[nH]1)C(=O)NCc1ccccc1)NO [Example 165]
IC50 [1, 14]: 1.94 µM | IC50 (MM96L melanoma cells; [15]): 0.485 µM | SI (Selectivity Index = IC50 (NFF)/IC50 (MM96L)) (MM96L melanoma cells): 4.0

O=C(CCCCC[C@H](NC(=O)Cc1c[nH]c2ccccc12)C(=O)NCc1ccccc1)NO [Example 162]
IC50 [1, 14]: > 2.22 µM | IC50 (MM96L melanoma cells; [15]): 0.332 µM | IC50 (MM96L melanoma cells; [16]): ≤ 0.5 µM | SI (Selectivity Index = IC50 (NFF)/IC50 (MM96L)) (MM96L melanoma cells): >7

CN(C)c1ccc(C(=O)N[C@@H](CSCCCC(=O)NO)C(=O)NCc2ccc(C(=O)Nc3cccc4cccnc34)cc2)cc1 [Example 115]
IC50 [1, 5]: 1.35 µM | IC50 (MM96L melanoma cells; [6]): 0.56 µM | Selectivity (MM96L melanoma cells; [7]): 2.4

CN(C)c1ccc(NC(=O)[C@H](CCCCCC(=O)NO)NC(=O)c2ccc(C(F)(F)F)cc2)cc1 [Example 152]
IC50 [1, 14]: 0.404 µM | IC50 (MM96L melanoma cells; [15]): 0.222 µM | SI (Selectivity Index = IC50 (NFF)/IC50 (MM96L)) (MM96L melanoma cells): 1.8

O=C(/C=C/c1ccccc1)N[C@@H](CSCCCC(=O)NO)C(=O)NCc1ccccn1 [Example 102]
IC50 [1, 8]: 4.2 ± 0.4 µM | IC50 (MM96L melanoma cells; [9]): 0.8 ± 0.3 µM | Selectivity (MM96L melanoma cells; [10]): 5.3

O=C(CCCSC[C@H](NC(=O)c1cccs1)C(=O)NCc1ccccc1)NO [Example 33]
IC50 [1, 2]: 9 ± 1 µM | IC50 (MM96L melanoma cells; [3]): 2.5 ± 0.2 µM | Selectivity (MM96L melanoma cells; [4]): 3.6

CN(C)c1ccc(C(=O)N[C@@H](CCCCCC(=O)NO)C(=O)NCc2ccccc2)cc1 [Example 123]
IC50 [1, 17]: 1 ± 0.1 µM | IC50 (MM96L melanoma cells; [16]): ≤ 0.5 µM | IC50 (MM96L melanoma cells; MM96L melanoma, 24 h with compound, further 72 h growth, SRB, read-out: IC50 (uM) MM96L): 0.16 ± 0.08 µM | SI (Selectivity Index = IC50 (NFF)/IC50 (MM96L)) (MM96L melanoma cells): 6.0

CN(C)c1ccc(C(=O)N[C@@H](CSCCCC(=O)NO)C(=O)NCc2ccccn2)cc1 [Example 82]
IC50 [1, 11]: 6.5 ± 0.3 µM | IC50 (MM96L melanoma cells; [12]): 1.2 ± 0.1 µM | Selectivity (MM96L melanoma cells; [13]): 5.5

CN(C)c1ccc(C(=O)N[C@@H](CSCCCC(=O)NO)C(=O)NCc2ccc(C(=O)NCCCCCCO)cc2)cc1 [Example 105]
IC50 [1, 5]: 17 µM | IC50 (MM96L melanoma cells; [6]): 4.26 µM | Selectivity (MM96L melanoma cells; [7]): 4.0

O=C(CCCCCC(NC(=O)C(Cc1ccccc1)NC(=O)Cc1c[nH]c2ccccc12)C(=O)NCc1ccccc1)NO (stereo not drawn) [Example 164]
IC50 [1, 17]: 9.76 µM
